According to the METLIN SMRT retention time set (Domingo-Almenara et al. 2019):

Test: gradient 5% acetonitrile 3 min, to 50% in 2 min, to 85% in 15 min, held 3 min, 100 µL/min
Settings: column: Zorbax Extend-C18 2.1 x 50 mm; eluents: water / acetonitrile, 0.1% formic acid
Outline: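 The system's dead and dwell volumes were 40 μL and 900 μL, with a Zorbax Extend-C18 column (2.1 × 50 mm, 1.8 μm) run at 100 μL/min in water and acetonitrile containing 0.1% formic acid each. Pure standards were analyzed in mixtures of ~100 molecules by HPLC–quadrupole time-of-flight mass spectrometry in positive and negative ionization mode. Retention time was assigned from computationally picked, manually inspected adduct peaks.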

SMILES | RP-LC retention time
COCCc1noc(C2Cc3ccccc3N2C(=O)NCC(C)C)n1 (configuration not stated) | 859 s
O=C1CCCN1CCCN1C(=O)[C@H]2CN(Cc3ccccc3Cl)C[C@H]2C1=O | 596 s
COc1ccc(NC(=O)C2CCN(S(=O)(=O)c3ccc4c(c3)CCCC(=O)N4)CC2)cc1Cl | 782 s
CC(C)n1nnc2cc(S(=O)(=O)N(C)CC(=O)N3CCN(c4ccccn4)CC3)ccc21 | 607 s
CCN(CC)C(=O)N1CC(Oc2ccc(-c3noc(COC)n3)cc2)C1 | 845 s
Cc1cc(C)c(CN2CC(CNC(=O)N3CCCC3)C3(CCOCC3)C2)c(C)c1 (configuration not stated) | 635 s
Cc1ccc(CN2CCN(C3CCN(C(=O)Nc4cccc(C)c4)CC3)C(=O)C2=O)cc1 | 740 s
CCOC(=O)c1ccc(NC(=O)COc2cc(C)nc(N3CCCC3)n2)cc1 | 591 s
CCC(=O)N1c2ccc(S(=O)(=O)N3CCCCC3)cc2CC1C(=O)NCc1ccc(N(C)C)cc1 (configuration not stated) | 691 s
CCOC(=O)c1c(C)[nH]c(CCC(=O)NCC2CCCO2)c1C (configuration not stated) | 686 s
Cc1cc(C)cc(NC(=O)Nc2nccn(-c3cc(C)cc(C)c3)c2=O)c1 | 1220 s
C[C@@H](Cc1ccc(OCC(=O)O)cc1)NC[C@@H](O)c1cccc(Cl)c1 | 704 s
COC(=O)c1c(C)[nH]c(C(=O)N2CCC(CC(=O)NC(c3cccs3)C(C)C)CC2)c1C (configuration not stated) | 805 s
CC1CCc2[nH]nc(C(=O)NC3CC3)c2C1 (configuration not stated) | 683 s
Cn1cccc1C(CNC(=O)Nc1ccc(Cl)c(Cl)c1)N1CCOCC1 (configuration not stated) | 601 s
CCN(CC)C(=O)CSc1nnc(-c2ccc3c(c2)OCCCO3)n1C(C)C | 770 s
O=C(NCCc1csc(C2CCN(C(=O)C3CCCCC3)CC2)n1)C1CC1 | 734 s
Nc1ccc(SCc2nnc(-c3cccc(F)c3)o2)cc1 | 784 s
COc1ccc(-c2c(C)noc2NC(C)=O)cc1S(=O)(=O)Nc1ccc(F)cc1C | 770 s
CCC1=C(c2ccc(C)cc2)S(=O)(=O)N=C1N1CCC(C(=O)N2CCN(C)CC2)CC1 | 641 s
CN(C)C(CNC(=O)C1(c2cccs2)CCCC1)c1ccsc1 (configuration not stated) | 596 s

SMILES | RP-LC retention time
CCCC(=O)N1CCc2c(c(C(=O)NCc3ccc4c(c3)OCO4)nn2C)C1 | 728 s
CC(=O)N1c2ccc(S(=O)(=O)N3CCCCCC3)cc2CC1C(=O)NCc1ccc(C)cc1 (configuration not stated) | 929 s
CC(C)CCNC(=O)N1CCC(c2cc(N)on2)CC1 | 659 s
COc1ccc(NC(=O)CN2CCc3[nH]c4c(C)c(Cl)ccc4c(=O)c3C2)c(OC)c1 | 656 s
O=c1n(Cc2ccc(Cl)cc2)nc2c(S(=O)(=O)N3CCOCC3)cccn12 | 808 s
COc1ccc(S(=O)(=O)N2CCN(c3cc(C)nc(NC4CCCCC4)n3)CC2)cc1Cl | 851 s
CCN1c2ccc(C)cc2C(=O)NC12CCN(C(=O)Cc1ccc(C)cc1)CC2 | 887 s
Fc1ccc(C(OCCCc2cnc[nH]2)c2ccc(F)cc2)cc1 | 833 s
O=S(=O)(Nc1cccn2c(C3CCC3)nnc12)c1ccc2c(c1)OCCO2 | 751 s
CCc1nnc(NS(=O)(=O)c2ccc(NC(=O)c3ccc([N+](=O)[O-])s3)cc2)s1 | 769 s
O=C(c1ccc(S(=O)(=O)c2cccc(Cl)c2)c([N+](=O)[O-])c1)N1CCN(c2ccccn2)CC1 | 722 s
COc1ccc(-c2cc(C(=O)NC3CCCCC3)nn2C2CCS(=O)(=O)C2)cc1 (configuration not stated) | 885 s
Cc1ccc(-c2cc3c(=O)n(Cc4noc(CN5CCSCC5)n4)ccn3n2)c(C)c1 | 962 s
Cc1ccoc1C(=O)N1CCC2(CCC2O)CC1 (configuration not stated) | 645 s
CC(C)n1cnc(S(=O)(=O)N2CCC(C(=O)N3CCN(c4ccccc4F)CC3)CC2)c1 | 807 s
Cc1cc(S(=O)(=O)N(C)C2CCc3nn(CC4CC4)c(=O)n3CC2)ccc1Cl (configuration not stated) | 827 s
Cc1cccc(NC(=O)C2CN(C(=O)c3cc(C)on3)C2)n1 | 601 s
Cc1[nH]nc(-c2ccc(S(=O)(=O)NC(C)C)o2)c1C | 729 s
Cc1cccc(S(=O)(=O)N2CCC(c3noc(-c4ccc(F)cc4)n3)CC2)c1 | 1180 s
Cc1cccc(NC(=O)Nc2cnn(-c3ncncc3N3CCC(C)CC3)c2)c1 | 761 s
Cc1ccc(F)c(NS(=O)(=O)c2cc(-c3[nH]ncc3C(=O)N(C)C)oc2C)c1 | 676 s

More lines, now with the values ahead:

RP-LC retention time | SMILES
636 s | COc1ccc(CC(=O)NCC(=O)Nc2nc3ccccc3[nH]2)cc1Cl
649 s | CCCn1cnc2cc(CNC(=O)CCC3CCCC3)ccc21
971 s | COc1ccc(-c2ncc3c(n2)CCN(C(=O)c2ccc(F)cc2Cl)C3)cc1
884 s | CCCCNC(=O)CN1c2ccc(F)cc2-c2ccccc2S1(=O)=O
898 s | CN(C)S(=O)(=O)c1ccc(-c2nnc(C(=O)NCc3ccc(F)c(Cl)c3)o2)cc1
920 s | CCc1noc(NC(C)=O)c1-c1ccc(C)c(S(=O)(=O)N2CCc3ccccc32)c1
630 s | O=C(NC1CCN(c2cc(-c3ccccc3)[nH]n2)C1)c1cccs1 (configuration not stated)
674 s | Cc1ccc(-c2cc(C(=O)N3CCN(c4ccccn4)CC3)nn2C2CCS(=O)(=O)C2)cc1C (configuration not stated)
622 s | Cc1nnc(N2CCC(C(=O)NCCCN3CCCC3=O)CC2)c2nn(-c3ccccc3)c(C)c12
961 s | Cc1cccc(-c2nnc(-c3cc(S(=O)(=O)N4CCOCC4)ccc3F)o2)c1
846 s | CCCn1cc(C2=CCN(C(=O)Nc3ccc4c(c3)OCCO4)CC2)c2cccnc21
766 s | O=C(c1cc(-c2cccc(Cl)c2)nc2ccccc12)N1CCN(c2ccccn2)CC1
1000 s | CCn1ccc2cc(S(=O)(=O)N3CCCC(C(=O)NCCCc4ccccc4)C3)ccc21 (configuration not stated)
1020 s | COC(=O)c1ccc(Cl)cc1NC(=O)NCCCn1c(C(F)(F)F)nc2cccnc21
1270 s | CCCc1noc(-c2ccnc(-n3ncc(C(=O)Nc4ccc(Cl)cc4)c3C)c2)n1
1110 s | COC(=O)c1c(-c2ccccc2)csc1NC(=O)c1ccnn1C
710 s | Cc1cccc(N2CCN(c3cc(C(=O)O)c4cc(NC(=O)CC(C)C)ccc4n3)CC2)c1
886 s | CCc1noc(NC(C)=O)c1-c1ccc(C)c(S(=O)(=O)NCc2ccc(C)cc2)c1
821 s | COC(=O)c1cc(OCC(=O)Nc2ccc3c(c2)OCO3)c2cc(C)ccc2n1
851 s | O=C(NC(c1nnc(-c2ccccc2)o1)c1ccccc1F)c1ccco1 (configuration not stated)
691 s | CCOC(=O)c1c(N)n(-c2ccccc2OC)c2nc3ccccc3nc12
774 s | O=C(Nc1ccccc1)C1CCCN(c2ncnc3c2nc2n3CCCCC2)C1 (configuration not stated)
834 s | CCc1ccc(N2C(=O)CN(S(C)(=O)=O)CC2(C)C(=O)NCc2ccc(F)cc2)cc1 (configuration not stated)

RP-LC retention time | SMILES
880 s | O=C(CN1CCc2ccccc2C1C(=O)N1CCCC1)NCc1ccc(C(F)(F)F)cc1 (configuration not stated)
578 s | CCCc1cc(=O)n(CC(=O)Nc2ncccc2C)cn1
1190 s | CC1=CN2C(c3cccc([N+](=O)[O-])c3)=NON(c3ccc(C)cn3)C2C=C1 (configuration not stated)
1070 s | CCOC(=O)N1CCN(C(=O)Cc2c(C)nn(-c3nc(-c4ccc(C)cc4)cs3)c2C)CC1
611 s | Cc1ccc(NC(=O)Cn2c(N)nc(C)c(C)c2=O)cc1
792 s | CC(C)c1noc(-c2ccn3c(CC(=O)NC(C)c4ccc(F)cc4)nnc3c2)n1 (configuration not stated)
652 s | NS(=O)(=O)c1ccc(NC(=O)CSc2nnc3ccc4ccccc4n23)cc1
646 s | Cn1cnc(S(=O)(=O)N2CCCCC2c2nc(-c3ccncc3)n[nH]2)c1 (configuration not stated)
614 s | Cc1nn(CC(=O)NCc2cccnc2)c(=O)c2nc(-c3ccccc3)sc12
957 s | CCn1nnc2ccc(-c3noc(-c4cccc(C#N)c4)n3)cc21
666 s | CCN(CC)c1ncnc2c(-c3ccccc3)cn(CC(=O)NCC3CCCO3)c12 (configuration not stated)
863 s | CN(CCc1noc(COc2ccccc2)n1)C(=O)Cc1ccccc1
593 s | Cc1cc(C)c2nc(C)cc(C(=O)N3CCN(c4ccccn4)CC3)c2c1
863 s | O=C(O)c1cc(I)ccc1NC(=O)[C@H](Cc1ccccc1)NCc1ccccc1
790 s | Cc1cccc(NC(=O)C2CCN(C(=O)C3Sc4ccccc4NC3=O)CC2)c1 (configuration not stated)
772 s | CNC(=O)c1sc(-c2ccccc2F)nc1C
851 s | Cc1cccc(NC(=O)Cn2c(=O)n(-c3ccccc3)c3ncccc32)c1
895 s | C/C(=N\Nc1nc2ccccc2s1)c1ccncn1
1020 s | O=C(CN1CCCCC1c1nc(-c2ccc(F)cc2)no1)NCc1cccs1 (configuration not stated)
723 s | CCCCc1ccc(Nc2c(C(=O)N3CCSCC3)cnc3nc(C)ccc23)cc1
744 s | CC(=O)c1cccc(NC2=NS(=O)(=O)c3ccccc32)c1
1070 s | CCOc1ccc(C(=O)N2C[C@H](c3nc(-c4ccccc4)no3)[C@@H](C)C2)cc1
